Reference: patent US7253176B1, “Immunosuppressive effects of 8-substituted xanthine derivatives” (K.U. Leuven Research & Development, priority 2000, dated 2007)

How the values were obtained:
Assay type in all cases: cell-based, human
Highly purified T cells [1] = experiment: T cell proliferation induced by anti-CD3 mAb+PMA (BrdU); conditions: for IC50: read-out: IC50 aCD3
Text: T cells were purified by removing non-T cells. Briefly, monocytes were removed by cold agglutination. The resulting lymphoid cells were further purified by a cell enrichment immunocolumn [Cellect Human T (Biotex, Edmonton, Alberta, Canada)] by a process of negative selection.
(§1) Measurements of T Cell Proliferations Induced by Anti-CD3 mAB+PMA or Anti-CD28 mAb+PMA
(§2) Highly purified T cells (10^6/ml) were stimulated by immobilized anti-CD3 or anti-CD28 mAb in the presence of PMA. Anti-CD3 mAb (CLB-CD3; CLB, Amsterdam, The Netherlands) were fixed on the 96-microwell plates by incubating the wells with 50 μl of mAb solution […] 50 μl (1/650 dilution in culture medium) was added directly to the wells. Further, 20 μl PMA (Sigma, St. Louis, Mo., USA) solution (final concentration: 0.5 ng/ml) was added. Subsequently, 20 μl of immunosuppressants were added by serial dilution in triplicate wells. Finally 100 μl of the T cell suspension (10^6/ml) was added. After 48-hour incubation at 37° C. in 5% CO2 20 μl BrdU (100 μM solution) (Cell Proliferation Elisa, Boehringer-Mannheim Belgium) was added to each well. After a further overnight incubation the T cell proliferation was measured using a calorimetric immunoassay for qualification of cell proliferation based on measurements of the incorporation of BrdU during DNA synthesis. The optical density (OD) was measured by a Behring EL311 place reader at 450 nm (reference wavelength: […]). The percent suppression of proliferation by drugs was counted using the formula: […]

Highly purified T cells [2] = experiment: T cell proliferation induced by anti-CD28 mAb+PMA (BrdU); conditions: anti-CD28 mAb+PMA pathway, read-out: IC50 aCD28
Text: (§3) Various models may be used for testing an immunosuppressive effect. In vivo, for example, different transplantation models are available. They are strongly influenced by different immunogenicities, depending on the donor and recipient species used and depending on the nature of the transplanted organ. The survival time of transplanted organs can thus be used to measure the suppression of the immune response. In vitro, there exist also various models. The most used are lymphocyte activation tests. Usually activation is measured via lymphocyte proliferation. Inhibition of proliferation thus always means immunosuppression under the experimental conditions applied. There exist different stimuli for lymphocyte activation: • coculture of lymphocytes of […] (MLR=mixed lymphocyte reaction): lymphocytes expressing different minor and major antigens of the HLA-DR type (=allogens) activate each other non-specifically. • CD3 assay: here there is an activation of the T-lymphocytes via an exogenously added antibody (OKT3). This antibody reacts against the CD3 molecule located on the lymphocyte membrane. This molecule has a […]. […] This molecule is also located on the lymphocyte membrane, and delivers strong costimulatory signals. […] Reagents
T cells were purified by removing non-T cells. Briefly, monocytes were removed by cold agglutination. The resulting lymphoid cells were further purified by a cell enrichment immunocolumn [Cellect Human T (Biotex, Edmonton, Alberta, Canada)] by a process of negative selection. More than 95% of the B cells were removed with this procedure. After depletion, the resulting T cell preparation was highly purified explaining these cells could not be activated by PHA or rIL-2 alone at concentrations capable of stimulating RBMC prior to deletion.
as §1, §2

[3] = test system: Peripheral blood mononuclear cells (PBMC); experiment: Mixed lymphocyte reaction (MLR), [3H]-thymidine incorporation
Text: as §3
Mixed Lymphocyte Reaction
Peripheral blood mononuclear cells (PBMC) were isolated from heparinized peripheral blood by density gradient centrifugation over Lymphoprep (Nycomed, Maorstua, Norway). Allogeneic PBMC or EBV-transformed human B cells [RPMI1788 (ATCC name CCL156)] which strongly express B7-1 and B7-2 were used as stimulator calls after irradiation with 30 Gy. MLR was performed in triplicate wells. After 5 days incubation at 37° C., 1 μCi [^3H]-thymidine was added to each cup. After a further 16 hours incubation, cells were harvested and counted in a β-counter.
The percent suppression of proliferation by drugs was counted using the formula: […]

[4] = lowest concentration giving 50% suppression of the MLR
[5] = Homo sapiens, T-cell, anti-CD3 mAb+PMA pathway
[6] = Homo sapiens, PBMC, lowest concentration giving 50% suppression of the MLR

Row | Molecule | IC50 (Highly purified T cells [1]; anti-CD3 mAb+PMA pathway) [µM] | IC50 (Highly purified T cells [2]) [µM] | IC50 [3, 4] [µM] | further results
1 | 1,3,7-trimethyl-8-(4-trifluoromethylfenyl)-xanthine [Compound 10] | 20 | 30 | 50 | –
2 | 1,3,7-tripropyl-8-(4-chlorofenyl)xanthine [Compound 118] | 15 | 20 | 15 | –
3 | 1,3,7-tripropyl-8-fenylxanthine [Compound 113] | 110 | 90 | 20 | –
4 | 1,3-dimethyl-7-allyl-8-[(4-trifluoromethyl)-fenyl]xanthine [Compound 82] | 80 | 80 | 25 | –
5 | 1,3-dimethyl-7-propyl-8-fenylxanthine [Compound 112] | 45 | 40 | 20 | –
6 | 1,3-dipropyl-2-thio-8-[4-((((N-2-aminoethyl)-amino)carbonyl)methyl)oxy)fenyl]xanthine [Compound 35] | 50 | 70 | 50 | –
7 | 1,3-dipropyl-8-[4(dimethylamino(ethyl(amino-(sulfonyl))))fenyl]xanthine [Compound 9] | 40 | 50 | 25 | –
8 | 1,3-dipropyl-8-[4-dimethylamino(propyl(amino-(sulfonyl))))fenyl]xanthine [Compound 40] | 60 | 70 | 25 | –
9 | 1,7-diallyl-3-methyl-8-fenylxanthine [Compound 8] | 35 | 80 | 30 | –
10 | 1,7-diallyl-3-propyl-8-(4-chlorofenyl)xanthine [Compound 119] | 50 | 30 | 15 | –
11 | 1,7-diallyl-3-propyl-8-fenylxanthine [Compound 114] | 85 | 70 | 15 | –
12 | CC#Cn1c(=O)c2c(ncn2C)n(C)c1=O [Compound 1, 1-propynyl-3,7-dimethylxanthine] | – | – | – | IC50 (Highly purified T cells [1]; [5]): 150 µM; IC50 (Highly purified T cells [2]; Homo sapiens, T-cell): > 200 µM; IC50 [3, 6]: > 200 µM
13 | C#CCn1cnc2c1c(=O)n(C)c(=O)n2CC#C [Compound 3, 1-methyl-3,7-dipropynylxanthine] | 150 | 100 | 150 | –
14 | CCCn1c(=O)c2[nH]c(-c3ccsc3)nc2n(CCC)c1=O [Compound 15] | > 200 | 170 | – | –
15 | Cn1c(=S)c2[nH]c(C3CCCC3)nc2n(C)c1=O [Compound 17] | 30 | 40 | 80 | –
16 | Cn1cnc2c1c(=O)n(CCCC(=O)O)c(=O)n2C [Compound 23, 1-(3-carboxypropyl)-3,7-dimethylxanthine] | – | – | – | IC50 (Highly purified T cells [1]; [5]): > 200 µM; IC50 (Highly purified T cells [2]; Homo sapiens, T-cell): > 200 µM; IC50 [3, 6]: > 200 µM
17 | CCOC(=O)CCCn1c(=O)c2c(ncn2C)n(C)c1=O [Compound 24, 1-(3-ethoxycarbonyl)propyl-3,7-dimethylxanthine] | 170 | 150 | > 200 | –
18 | CC(O)CCCCn1c(=O)c2c(ncn2C)n(C)c1=O (stereo not shown) [Compound 25] | 140 | 160 | > 200 | –
19 | CCCn1cnc2c1c(=O)n(CCCCC(C)O)c(=O)n2C (stereo not shown) [Compound 26] | 100 | 100 | 100 | –
20 | CCCn1c(=O)c2[nH]c(-c3ccc(OCC(=O)O)cc3)nc2n(CCC)c1=S [Compound 28] | 150 | 75 | 120 | –
21 | CCCn1c(=O)c2[nH]c(-c3ccc(OCC(=O)OCC)cc3)nc2n(CCC)c1=S [Compound 29] | 150 | 130 | > 200 | –

Row | Molecule | IC50 (Highly purified T cells [1]; anti-CD3 mAb+PMA pathway) [µM] | IC50 (Highly purified T cells [2]) [µM] | IC50 [3, 4] [µM] | further results
22 | Cn1c(-c2ccc(S(N)(=O)=O)cc2)nc2c1c(=O)[nH]c(=O)n2C [Compound 37] | 150 | 150 | > 200 | –
23 | CCCn1c(=O)c2[nH]c(-c3ccc(C(F)(F)F)cc3)nc2n(CCC)c1=O [Compound 48] | 160 | 150 | 180 | –
24 | Cn1c(=O)c2[nH]c(-c3ccco3)nc2n(C)c1=O [Compound 58] | 160 | 170 | > 200 | –
25 | CCCn1c(=O)c2[nH]c(-c3ccco3)nc2n(CCC)c1=O [Compound 59] | 155 | 135 | 15 | –
26 | Cn1c(=O)c2[nH]c(-c3ccco3)nc2n(C)c1=S [Compound 60] | – | 190 | > 200 | –
27 | CCCn1c(=O)c2[nH]c(-c3ccco3)nc2n(CCC)c1=S [Compound 61] | 170 | 110 | 100 | –
28 | Cn1c(=O)c2[nH]c(C3CCCC3)nc2n(C)c1=O [Compound 62] | > 200 | 190 | > 200 | –
29 | CCCn1c(=O)c2[nH]c(C3CCCC3)nc2n(CCC)c1=O [Compound 63] | 135 | 100 | > 200 | –
30 | Cn1c(=O)c2[nH]c(C3CCCC3)nc2n(C)c1=S [Compound 64] | > 200 | > 200 | > 200 | –
31 | CCCn1c(=O)c2[nH]c(C3CCCC3)nc2n(CCC)c1=S [Compound 65] | 135 | 75 | > 200 | –
32 | Cn1c(=O)c2c(nc(C3CCCC3)n2C)n(C)c1=S [Compound 66] | 170 | 170 | > 200 | –
33 | C#CCn1c(=O)n(C)c(=O)c2c1ncn2C [Compound 67, 1,7-dimethyl-3-propynylxanthine] | > 200 | – | > 200 | –
34 | Cn1c(=O)c2[nH]cnc2n(CC(C)(C)C)c1=O [Compound 69] | 110 | 45 | 120 | –
35 | Cn1cnc2c1c(=O)[nH]c(=O)n2CC(C)(C)C [Compound 70] | 180 | 140 | > 200 | –
36 | CC(C)n1c(=O)n(C)c(=O)c2[nH]cnc21 [Compound 71] | – | – | 160 | –
37 | Cn1c(-c2ccc(C(F)(F)F)cc2)nc2c1c(=O)[nH]c(=O)n2C [Compound 83] | > 200 | 150 | > 200 | –
38 | Cn1c(=O)c2[nH]c(-c3ccc(-c4ccccc4)cc3)nc2n(C)c1=O [Compound 115] | > 200 | 160 | 110 | –
39 | CCCn1c(=O)c2c(nc(-c3ccc(-c4ccccc4)cc3)n2CCC)n(CCC)c1=O [Compound 116, 1,3,7-tripropyl-8-(p-bifenyl)xanthine] | 45 | 40 | 160 | –
40 | C=CCn1c(=O)c2c(nc(-c3ccc(-c4ccccc4)cc3)n2CC=C)n(CCC)c1=O [Compound 117, 1,7-diallyl-3-propyl-8-(p-bifenyl)xanthine] | 30 | 30 | 15 | –
41 | Cn1c(=O)c2[nH]c(-c3ccc(S(N)(=O)=O)cc3)nc2n(C)c1=O [Compound 125] | 150 | 90 | 160 | –
42 | C=CC[C@@H]1/C=C(\C)C[C@H](C)C[C@H](OC)[C@H]2O[C@@](O)(C(=O)C(=O)N3CCCC[C@H]3C(=O)O[C@H](/C(C)=C/[C@@H]3CC[C@@H](O)[C@H](OC)C3)[C@H](C)[C@@H](O)CC1=O)[C@H](C)C[C@@H]2OC [FK506, reference compound] | – | – | – | IC50 (Highly purified T cells [1]; Homo sapiens, T-cell, immunosuppressants for comparison, anti-CD3 mAb+PMA): 0.001 µM; activity in the anti-CD3+PMA test (Highly purified T cells [1]; in words): active; IC50 ([3]; Homo sapiens, PBMC, immunosuppressants for comparison): 0.001 µM
